Measured values published in patent publication US10758519B2, “UCP-1 expression promoter” (Kao Corporation, priority 2014, dated 2020).
Marks after values point to notes of the source that are not given here.

How the values were obtained:
[1] = Blood (serum) analysis, Example B6; format: in vivo, mouse; conditions: 14th day after operation, high-fat diet
Method: Each C57BL/6J (SLC, male, 7 weeks old) was allowed to freely eat High-Fat Diets with 60 cal % Fat (Research Diets, Inc.) and freely drink tap water. The body weight was measured every week. After 10 weeks, the mice were divided into 4 groups such that the average body weight was equivalent among the groups (n=8). The breeding environment was set to room temperature of 23±2° C., a humidity of 55±10%, and a light period of 7 a.m. to 7 p.m.
A 1/13 diluted solution of Somnopentyl was intraperitoneally administered at 10 mL/kg body weight, and then, an analgesic pentazocine was subcutaneously injected at 1 mg/kg body weight. After shaving of the back, an osmotic pump Alzet (DURECT Corp.) filled with the agents given below was implanted to thereby continuously administer the agents.
Group 2: PPARγ activator (rosiglitazone (Rosi); 5 mg/kg body weight/day)+Smad3 inhibitor (SIS3; 5 mg/kg body weight/day)
Group 3; β3 adrenaline receptor activator (CL316,243; 0.1 mg/kg body weight/day)
Group 4; PPARγ activator (rosiglitazone (Rosi); 5 mg/kg body weight/day)+Smad3 inhibitor (SIS3; 5 mg/kg body weight/day)+β3 adrenaline receptor activator (CL316,243; 0.1 mg/kg body weight/day)
Anatomy was performed on the 14th day after the operation. Blood was collected from the abdominal vena cava under isoflurane anesthesia. Then, each tissue shown below was collected and the weight of the tissue was measured. The significant difference was tested using a multiple comparison test by the Turkey-Kramer method (different letters indicate significant difference with P<0.05).
Serum from the blood obtained by the anatomy described above was subjected to componential analysis using commercially available measurement kits described below.
Adiponectin: adiponectin ELISA kit (Otsuka Pharmaceutical Co., Ltd.)
Insulin: insulin measurement kit (Morinaga Institute of Biological Science, Inc.)
Glucose: N-Assay Glu-UL (Nittobo Medical Co., Ltd.)
Total cholesterol: N-Assay L T-CHO-H (Nittobo Medical Co., Ltd.)
Triglyceride: N-Assay TG-H (Nittobo Medical Co., Ltd.)
NEFA: NEFA-HA Test Wako (Wako Pure Chemical Industries, Ltd.)

UCP-1 = UCP-1 expression-inducing action in rat preadipocytes (quantitative PCR), Example B1; format: cell-based
Method: The abdominal subcutaneous fat tissues of a Wistar-rat (male, 8 weeks old) were chopped with a surgical knife in a collagenase buffer (0.05% collagenase+4% BSA in Hank's buffer), and then, the chopped tissues were incubated at 37° C. for 15 minutes while shaken. After addition of an appropriate amount of a medium (high glucose DMEM (Invitrogen Corp.)+10% fetal, bovine serum (FBS) (AusGeneX PTY LTD.)+100 units/mL penicillin+[…] streptomycin (Invitrogen Corp.)), the obtained cell suspension was centrifuged at 1,000 rpm for 5 minutes. The supernatant was removed to obtain pellets (SVF: stromal vascular fraction). The SVF was suspended in a DMEM (+10% FBS+penicillin+streptomycin) medium, inoculated to a T-175 flask, cultured for 4 days, and used as preadipocytes.
The preadipocytes were inoculated to a 12-well plate coated with type I collagen. On the next day, the PPARγ activator (rosiglitazone (Rosi) (Wako Pure Chemical Industries, Ltd.), final concentration: 1 μM) and/or the Smad3 inhibitor (SIS3 (Sigma-Aldrich Corp.), final concentration: 10 μM) was added thereto. After culture for 7 days, the β3 adrenaline receptor activator (norepinephrine (NE) (Wako Pure Chemical Industries, Ltd.), final concentration: 1 μM)) was added thereto, and the cells were cultured for 2 hours, then washed with PBS, and recovered.
Total RNA was extracted according to a standard method using RNeasy Mini Kit (Qiagen N.V.). The total RNA was reverse-transcribed according to a standard method using High Capacity RNA-to-cDNA Kit (Applied Biosystems by Life Technologies).
Quantitative PCR was performed with the obtained cDNA (30 ng/well) as a template using 7500 Fast Real-Time PCR System (Applied Biosystems by Life Technologies). The expression level of each gene was corrected with a 36B4 gene expression level as an internal standard. Control excluded the agents described above.
(§1) The preadipocytes (n=3) obtained as described above were inoculated to a 12-well plate coated with type I collagen. On the next day, the PPARγ activator (rosiglitazone (Rosi) (Wako Pure Chemical Industries, Ltd.) or pioglitazone (Wako Pure Chemical Industries, Ltd.); 1 μM) and the Smad3 inhibitor (SIS3 (Sigma-Aldrich Corp.), 10 μM) were added thereto. After culture for 7 days, the cells were treated with the β3 adrenaline receptor activator (norepinephrine (Wako Pure Chemical Industries, Ltd.), 1 μM) for 2 hours and then recovered.
The preadipocytes were collected by trypsin treatment and transfected with siRNA against each Smad by electroporation using Neon transfection System. (Invitrogen Corp.). The preadipocytes (3×10^5 cells) were transfected with 50 pmol of the siRNA (Life Technologies) under conditions of 1150 V/20 ms/3 pulses, suspended in a DMEM (+10% FBS+100 units/mL penicillin+[…] streptomycin) medium, and then inoculated to a 12-well plate coated with type I collagen. After 6 hours, rosiglitazone was added thereto, and the cells were cultured with the medium replaced with fresh one every day. Four days after the inoculation, the cells were treated with norepinephrine for 2 hours and then recovered, and the UCP-1 expression level was analyzed by using RT-PCR. For a control, rosiglitazone, SIS3, and norepinephrine were added in the same approach as above to cells transfected with random siRNA, followed by analysis.
as §1, with “Ltd.), 10” for “Ltd.) or pioglitazone (Wako Pure Chemical Industries, Ltd.); 1”, “Corp.) or SB431542 (Sigma-Aldrich Corp.);” for “Corp.),”
The preadipocytes (n=3) were inoculated to a 12-well plate coated with type I collagen. […]

human TGR5 = target: T1, human TGR5 (Homo sapiens, UniProt Q8TDU6); assay: TGR5-activating action, CRE luciferase reporter in HEK293 cells, Reference Example 3; format: cell-based; conditions: material 0.001%, 12 to 18 hours; relative to control defined as 1; FIG. 22
T1 construct: expressed in transfected cells; host or cells: HEK293
T1 sequence (Q8TDU6 1-330): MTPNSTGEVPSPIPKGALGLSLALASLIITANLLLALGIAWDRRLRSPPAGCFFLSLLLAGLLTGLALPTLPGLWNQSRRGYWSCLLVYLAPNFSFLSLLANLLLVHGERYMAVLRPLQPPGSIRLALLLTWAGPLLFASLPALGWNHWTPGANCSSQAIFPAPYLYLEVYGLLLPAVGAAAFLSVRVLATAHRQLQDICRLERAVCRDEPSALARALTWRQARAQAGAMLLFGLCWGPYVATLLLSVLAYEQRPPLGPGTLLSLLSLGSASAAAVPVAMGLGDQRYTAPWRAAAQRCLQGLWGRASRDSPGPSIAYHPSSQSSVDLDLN
Method: HEK293 cells were inoculated at 1.0×10^5 cells/well to a 24-well plate and cultured in a DMEM medium containing 5% charcoal-treated FBS for 1 day. Then, the cells were transfected with 200 ng/well of a firefly luciferase reporter vector pGL4.29[luc2P/CRE/Hygro](Promega Corp.) containing a cAMP-responsive element (CRE), 40 ng/well of a human TGR5 expression vector hTGR5 (pcDNA3.1+), and 80 ng/well of phRL-TK (Renilla luciferase vector for gene, transfection efficiency correction) using Superfect transfection reagent (Qiagen N.V.). After 3 hours, the medium was replaced with a DMEM medium containing 5% charcoal-treated […]. After another 4 hours, each material shown in Table 4 below was added thereto at a final concentration of 0.001%. 12 to 18 hours thereafter, the luciferase activities were measured using DualGlo luciferase assay system (Promega Corp.). The TGR5-activating action was evaluated by correcting the firefly luciferase activity with the Renilla luciferase activity. The TGR5-activating action was indicated by relative values to the TGR5 activity in a control defined as 1.

Smad3 = assay: TGF-β stimulation-responsive Smad3 phosphorylation in HEK293 cells (Western blotting), Reference Example 1; format: cell-based; conditions: material 0.002% (luteolin 2 μM) or 0.01% (luteolin 10 μM), 2 hours, then 0.03 μg/mL TGF-β 20 minutes, FIG. 20
Method: HEK293 cells were inoculated at 3×10^5 cells/well to a 6-well dish and cultured overnight in DMEM containing 5% charcoal-treated FBS. On the next day, the medium was replaced with serum-free DMEM supplemented with each material shown in Table 2 below at a final concentration of 0.002% (luteolin: 2 μM) (low-concentration sample) or a final concentration of 0.01% (luteolin: 10 μM) (high-concentration sample). After 2 hours, 0.03 μg/mL TGF-β was added to each well, and the cells were incubated for 20 minutes. After removal of the medium, the resulting cells were washed with PBS and then recovered. The recovered cells were added with Lysis buffer and well homogenized. The cells were left to stand for 15 minutes on ice and then ultrasonically disrupted, and a supernatant centrifuged at 12,000 rpm at 4° C. for 10 minutes was obtained as a protein solution. A prepared sample containing […] of the protein and a ¼ volume of 4×SDS Sample buffer (Novagen) per lane was thermally denatured at 95° C. for 5 minutes and then used in SDS-PAGE. The protein was transferred to Immun-Blot™ PVDF Membrane (Bio-Red Laboratories, Inc.) and subjected to blocking and antibody reaction by the procedures given below, and α-Tubulin and Smad3 were detected together using ECL prime western blotting detection system (Amersham plc). […]

[2] = Smad3 inhibitor 10 μM with rosiglitazone 10 μM (7 days) and norepinephrine 1 μM (2 hours), FIG. 8
[3] = β3 adrenaline receptor activator 1 μM for 2 hours added to rosiglitazone 1 μM and SIS3 10 μM (7 days), FIG. 9
[4] = PPARγ activator 1 μM added to SIS3 10 μM (7 days) and norepinephrine 1 μM (2 hours), FIG. 6

**Q.** Which Glucose [1] does the source give for C[C@H](Cc1ccc2c(c1)OC(C(=O)[O-])(C(=O)[O-])O2)NC[C@H](O)c1cccc(Cl)c1.[Na+].[Na+] [CL316,243] here?
**A.** Its Glucose is 274.9 ± 19.6^a mg/dl.

**Q.** And the Insunlin [1]?
**A.** The Insunlin was 3.05 ± 0.30^ab ng/ml.

**Q.** And the NEFA [1]?
**A.** The NEFA was 0.92 ± 0.09^a mEq/l.

**Q.** And the Total cholesterol [1]?
**A.** The Total cholesterol was 151.1 ± 4.8^ac mg/dl.

**Q.** And the Triglyceride [1]?
**A.** The Triglyceride was 77.2 ± 7.8^ab mg/dl.

**Q.** What about the Adiponectin ([1]; Rosi 5, SIS3 5, CL316,243 0.1 mg/kg body weight/day) of the same compound?
**A.** Its Adiponectin is 36.9 ± 6.9^ab μg/ml.

**Q.** With NC(=O)c1ccc(-c2nc(-c3ccc4c(c3)OCO4)c(-c3ccccn3)[nH]2)cc1 [SB431542] as the compound, how does the “expression level of UCP-1” value (UCP-1; [2]) read?
**A.** The value was “synergistically increased”.

**Q.** For COc1cc2c(cc1OC)CN(C(=O)/C=C/c1c(-c3ccccc3)n(C)c3ncccc13)CC2 [SIS3, 6,7-dimethoxy-2-((2E)-3-(1-methyl-2-phenyl-1H-pyrrolo[2,3-b]pyridin-3-yl-prop-2-enoyl))-1,2,3,4-tetrahydroisoquinoline], which “expression level of UCP-1” value (UCP-1; [2]) is on record?
**A.** Its value is “synergistically increased”.

**Q.** For C[C@H](CCC(=O)O)[C@H]1CC[C@H]2[C@@H]3[C@H](O)C[C@@H]4C[C@H](O)CC[C@]4(C)[C@H]3C[C@H](O)[C@]12C [cholic acid], which TGR5-activating action (human TGR5) is on record?
**A.** The TGR5-activating action was “confirmed to have a TGR5-activating action”.

**Q.** For CCCCC[C@H](O)CC(=O)CCc1ccc(O)c(OC)c1 [gingerol], which TGR5-activating action (human TGR5) is on record?
**A.** Its TGR5-activating action is “confirmed to have a TGR5-activating action”.

**Q.** For O=c1cc(-c2ccc(O)c(O)c2)oc2cc(O)cc(O)c12 [luteolin], which “TGF-β stimulation-responsive Smad3 hyperphosphorylation (Smad3-inhibiting action)” value (Smad3) is on record?
**A.** Its value is “confirmed to have a Smad3-inhibiting action”.

**Q.** Which “expression level of UCP-1” value (UCP-1; [3]) does the source give for Nc1nc(CC(=O)Nc2ccc(CCNC[C@H](O)c3ccccc3)cc2)cs1 [mirabegron] here?
**A.** Its value is “synergistically increased”.

**Q.** For NC[C@H](O)c1ccc(O)c(O)c1 [norepinephrine], which “expression level of UCP-1” value (UCP-1; [3]) is on record?
**A.** The value was “synergistically increased”.

**Q.** For CCc1ccc(CCOc2ccc(CC3SC(=O)NC3=O)cc2)nc1 (stereo not drawn) [pioglitazone], which “expression level of UCP-1” value (UCP-1; [4]) is on record?
**A.** Its value is “synergistically increased”.

**Q.** With CN(CCOc1ccc(CC2SC(=O)NC2=O)cc1)c1ccccn1 (stereo not drawn) [rosiglitazone] as the compound, how does the “expression level of UCP-1” value (UCP-1; [4]) read?
**A.** Its value is “synergistically increased”.
